From ChEMBL document CHEMBL5233262, “Anti-inflammatory activity of naturally occuring diarylheptanoids - A review” (Bioorg Med Chem, 2021)

Assays:
[1] = tested on: Rattus norvegicus; test: Antiinflammatory activity in rat model of carrageenan-induced hind paw edema assessed as reduction in paw thickness at 100 mg/kg,ip 30mins before carrageenin exposure and measured after 3 hrs; type: functional; set-up: scale not given: the % may be the effect or the level left
[2] = tested on: Rattus norvegicus; test: Antiinflammatory activity in rat model of ethyl phenylpropiolate-induced ear edema assessed as 30% reduction in ear thickness administered topically and measured after 1 hr; type: functional
[3] = tested on: Rattus norvegicus; test: Antiinflammatory activity in rat model of ethyl phenylpropiolate-induced ear edema assessed as 30% reduction in ear thickness administered topically and measured after 30 mins; type: functional; conditions: 0.5 h
[4] = tested on: RAW264.7; test: Antiinflammatory activity in mouse RAW264.7 cells assessed as inhibition of KLA-induced TNFalpha expression at 0.06 mg/ml and measured after 24 hrs by ELISA; type: functional
[5] = tested on: RAW264.7; test: Antiinflammatory activity in mouse RAW264.7 cells assessed as inhibition of LPS-induced iNOS expression at 25 uM; type: functional
[6] = tested on: Rattus norvegicus; test: Antiinflammatory activity in Wistar rat model of carrageenan-induced paw edema assessed as reduction in paw thickness at 10 mg/kg,po and measured after 5 hrs; type: functional; set-up: scale not given: the % may be the effect or the level left
[7] = tested on: Mus musculus; test: Antiinflammatory activity in TPA-induced ear edema ICR mouse model assessed as inhibition of ear inflammation at 1 ug, TOP for 30 mins followed by TPA addition and measured after 6 hrs; type: functional; conditions: dose 1 µg, time 390 min, 6.5 h
[8] = tested on: RAW264.7; test: Antiinflammatory activity in mouse RAW264.7 cells assessed as inhibition of LPS-induced NO production incubated for 20 hrs by Griess reagent based microplate reader analysis; type: functional, cell-based; conditions: RAW264.7, 20 h
[9] = tested on: U-937; test: Antiinflammatory activity in PMA-stimulated human U-937 cells assessed as inhibition of TNFalpha secretion at 1 ug/ml by ELISA; type: functional
[10] = tested on: U-937; test: Antiinflammatory activity in PMA-stimulated human U-937 cells assessed as inhibition of IL-1beta secretion at 1 ug/ml by ELISA; type: functional
[11] = tested on: U-937; test: Antiinflammatory activity in PMA-stimulated human U-937 cells assessed as inhibition of IL-1beta protein expression at 1 ug/ml by western blot analysis; type: functional
[12] = tested on: RAW264.7; test: Antiinflammatory activity in mouse RAW264.7 cells assessed as inhibition of LPS-induced NO production by Griess method; type: functional, cell-based
[13] = Antioxidant activity assessed as nitroblue tetrazolium superoxide radical scavenging activity by spectrophotometric analysis; type: functional
[14] = Antioxidant activity assessed as nitroblue tetrazolium superoxide radical scavenging activity incubated for 10 mins by spectrophotometric analysis; type: functional
[15] = tested on: RAW264.7; test: Antiinflammatory activity in mouse RAW264.7 cells assessed as inhibition of LPS-induced NO production incubated for 18 hrs by Griess method; type: functional, cell-based; conditions: RAW264.7, 18 h
[16] = tested on: RAW264.7; test: Antiinflammatory activity in mouse RAW264.7 cells assessed as inhibition of LPS-induced NO production preincubated for 1 hrs followed by LPS stimulation and measured after 24 hrs by Griess reagent based analysis; type: functional, cell-based
[17] = tested on: RAW264.7; test: Antiinflammatory activity in mouse RAW264.7 cells assessed as inhibition of LPS-induced NO production incubated for 20 hrs by Griess method; type: functional, cell-based; conditions: RAW264.7, 20 h
[18] = Antioxidant activity assessed as DPPH radical scavenging activity incubated for 30 mins by spectrophotometric analysis; type: functional
[19] = tested on: RAW264.7; test: Antiinflammatory activity in mouse RAW264.7 cells assessed as inhibition of LPS-induced NO production incubated for 24 hrs by Griess method; type: functional, cell-based; conditions: RAW264.7, 24 h
[20] = tested on: RAW264.7; test: Antiinflammatory activity in mouse RAW264.7 cells assessed as inhibition of LPS-induced NO production at 10 ug/ml incubated for 20 hrs by Griess reagent based microplate reader analysis; type: functional

With `OC(CC/C=C/c1ccccc1)CCc1ccccc1` (configuration not stated) the Activity [1] was 30%, the ID30 [2] was 28 µg and the ID30 [3] was 35 µg.

With `O=C(/C=C/CCc1ccccc1)CCc1ccccc1` the inhibition at 60 µg/mL [4] was 38%, the inhibition at 25 µM [5] was 71% and the Activity [6] was 4.7%. For the same compound, the ID50 [7] was 2.7 µmol and the IC50 [8] was 6.8 µM.

For `Oc1ccc(CCC(O)CC/C=C/c2ccccc2)cc1` (configuration not stated), the inhibition at 1 µg/mL [9] was 19%, the inhibition at 1 µg/mL [10] was 20% and the inhibition at 1 µg/mL [11] was 58%.

With `COc1cc(C[C@H]2O[C@@H](CC(=O)c3ccc(O)c(OC)c3)C[C@H]2O)ccc1O` the IC50 [12] was > 100 µM.

Compound `O=C(CCCCc1ccc(O)c(O)c1)CCc1ccc(O)c(O)c1` has an IC50 [13] of 30.1 µM, an IC50 [14] of 12.7 µM and an IC50 [15] of 16.8 µM. The IC50 [16] was 6.6 µM, the IC50 [17] was 2.6 µM and the IC50 [18] was 20.1 µM. The IC50 [19] was 22.7 µM.

`COc1cc(C(=O)[C@@H](O)[C@@H]2CCC[C@H](c3ccc(O)c(OC)c3)O2)ccc1O` gave an IC50 [12] of 38.9 µM.

In the case of `COc1cc(CCC(=O)CC(O)CCc2ccc(O)c(OC)c2)ccc1O` (configuration not stated) [HEXAHYDROCURCUMIN], the inhibition at 10 µg/mL [20] is reported as 32% and the IC50 [8] is reported as > 30 µM.
